Measured values as given in ChEMBL document CHEMBL6092182, “Enhanced Plasma Stability and Potency of Aryl/Acyloxy Prodrugs of a BTN3A1 Ligand” (ACS Med Chem Lett, 2024).

Legend:
[1] = Stimulation of IL-2-treated human Vgamma9Vdelta2 T cell proliferation incubated for 72 hrs followed by compound washout measured after 11 days by flow cytometry; type: functional, cell-based
[2] = Prodrug conversion in human plasma assessed as formation of mono-anion metabolite by measuring metabolite peak intensity at 100 uM incubated for 1 hr by LCMS analysis; type: ADME, cell-free
[3] = Prodrug conversion in human K562 cells assessed as formation of mono-anion metabolite by measuring metabolite peak intensity at 100 uM incubated for 1 hr by LCMS analysis; type: functional
[4] = Stability in human plasma assessed as half life at 100 uM by LCMS analysis; type: ADME, cell-free
[5] = Prodrug conversion in human K562 cells assessed as formation of di-anion metabolite by measuring metabolite peak intensity at 100 uM incubated for 1 hr by LCMS analysis; type: functional
[6] = Stability in human plasma assessed as compound remaining at 100 uM measured after 2 hrs by MS analysis; type: ADME, cell-free; settings: for Stability: 2 h, 100 µM
[7] = Prodrug conversion in human plasma assessed as formation of di-anion metabolite by measuring metabolite peak intensity at 100 uM incubated for 1 hr by LCMS analysis; type: ADME, cell-free; set-up: unit not given here
[8] = Stimulation of IL-2-treated human Vgamma9Vdelta2 T cell proliferation assessed as IFN-gamma release pretreated human […] cells with compound for 1 hr followed by compound washout and addition of washed K562 cells to medium containing Vgamma9Vdelta2 T cells measured after 20 hrs by ELISA; type: functional, cell-based
[9] = Prodrug conversion in human K562 cells assessed as formation of Ac-monoanion metabolite by measuring metabolite peak intensity at 100 uM incubated for 1 hr by LCMS analysis; type: functional
[10] = Prodrug conversion in human plasma assessed as formation of Ac-monoanion metabolite by measuring metabolite peak intensity at 100 uM incubated for 1 hr by LCMS analysis; type: ADME, cell-free
[11] = Stability in mouse plasma assessed as compound remaining measured after 2 hrs by MS analysis; type: ADME, cell-free
[12] = Stability in mouse plasma assessed as half life measured after 2 hrs by MS analysis; type: ADME, cell-free
[13] = Stability in rat plasma assessed as compound remaining measured after 2 hrs by MS analysis; type: ADME, cell-free

Row | Compound | EC50 [1] | Activity [2] | Activity [3] | t1/2 [4] | Activity [5] | Stability [6] | Activity [7] | EC50 [8] | Activity [9] | Activity [10] | Stability [11] | t1/2 [12] | Stability [13] | remaining at 2 h, 100 µM ([6]; read-out: Stability)
1 | CC(=O)OC/C(C)=C/CCP(=O)(OCOC(=O)CC1CCOCC1)Oc1ccc(C(C)C)cc1 (stereo unspecified) | 0.44 nM | 3000 | 6300 | 42 min | 1000 | 28% | 0 | 3.5 nM | 49 | 6100 | Stable |  |  | 
2 | CC(=O)OC/C(C)=C/CCP(=O)(OCOC(=O)C1CCOCC1)Oc1ccc(C(C)C)cc1 (stereo unspecified) | 1.2 nM | 3200 | 8200 | 16 min | 1700 | 0% | 0 | 2.2 nM | 67 | 9900 | Stable |  |  | 
3 | CC(=O)OC/C(C)=C/CCP(=O)(OCOC(=O)CC1CCCCC1)Oc1ccc(C(C)C)cc1 (stereo unspecified) | 0.54 nM | 330 | 3900 | 750 min | 410 | 90% | 0 | 3 nM | 54 | 2400 | Stable |  |  | 
4 | CC(=O)OC/C(C)=C/CCP(=O)(OCOC(=O)CC1CCOCC1)Oc1cccc2ccccc12 (stereo unspecified) | 0.66 nM | 2800 | 3000 | 15 min | 880 | 7% | 0 | 5.4 nM | 4 | 2900 | Stable |  |  | 
5 | COc1ccc(C(=O)OCOP(=O)(CC/C=C(\C)CO)Oc2ccc(C(C)C)cc2)cc1 (stereo unspecified) | 1.5 nM | 5900 | 6000 | 500 min | 590 | 71% | 0 | 6.4 nM |  |  | Stable |  |  | 
6 | C/C(=C\CCP(=O)(OCOC(=O)C1CCOCC1)Oc1ccc(C(C)C)cc1)CO (stereo unspecified) | 0.97 nM | 13000 | 18000 | 11 min | 1500 | 0% | 0 | 0.89 nM |  |  | Stable |  |  | 
7 | C/C(=C\CCP(=O)(OCOC(=O)CC1CCOCC1)Oc1cccc2ccccc12)CO (stereo unspecified) | 0.37 nM | 11000 | 3200 | 5.9 min | 690 | 0% | 0 | 4.8 nM |  |  | Stable | 5.6 min | 65% | 
8 | C/C(=C\CCP(=O)(OCOC(=O)CC1CCCCC1)Oc1ccc(C(C)C)cc1)CO (stereo unspecified) | 1.1 nM | 4500 | 4800 | 94 min | 500 | 80% | 0 | 2.8 nM |  |  | Stable |  |  | 
9 | CC(=O)OC/C(C)=C/CCP(=O)(OCOC(=O)c1ccccc1)Oc1ccc(C(C)C)cc1 (stereo unspecified) | 0.27 nM | 300 | 8800 | 66 min | 870 | 34% | 0 | 2.6 nM | 180 | 12000 | Stable |  |  | 
10 | C/C(=C\CCP(=O)(OCOC(=O)c1ccccc1)Oc1ccc(C(C)C)cc1)CO (stereo unspecified) | 0.43 nM | 7900 | 10000 |  | 830 | 13% | 0 | 7 nM |  |  | Stable |  |  | 
11 | COc1ccc(C(=O)OCOP(=O)(CC/C=C(\C)COC(C)=O)Oc2ccc(C(C)C)cc2)cc1 (stereo unspecified) | 0.84 nM | 830 | 3900 | 180 min | 360 | 62% | 0 | 4.1 nM | 18 | 3500 | Stable |  |  | 
12 | C/C(=C\CCP(=O)(OCOC(=O)C1CCCCC1)Oc1ccccc1)CO (stereo unspecified) |  |  |  |  |  |  |  |  |  |  |  |  |  | 0%
13 | C/C(=C\CCP(=O)(OCOC(=O)CC1CCOCC1)Oc1ccc(C(C)C)cc1)CO (stereo unspecified) | 0.53 nM | 16000 | 6600 |  | 640 | 0% | 0 | 2.2 nM |  |  | Stable |  |  | 
